pIC50: −log10 of the molar value.

The first assay concerns HIV. Nature of the assay: MT4 Assay (anti-HIV activity). It counts as cell-based. To be noted: Human immunodeficiency virus 1, 96 h, read-out: HIV MT4 Assay IC50, HTLV-1 transformed cell line MT-4, cell titer glo, 10 point dose response curve. In a few lines:
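MT-4 cells (HTLV-1 transformed) were used for antiviral activity and cytotoxicity, run in parallel, with luminescence read by CellTiter-Glo 96 hours later. Percent inhibition was expressed against the no-compound control. IC50s came from 10-point curves of 3-4-fold serial dilutions spanning >1000-fold.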
`COc1ccc2c(-c3ccc4c(c3C)CCCO4)c(C(OC(C)(C)C)C(=O)O)n(C)c(=O)c2c1F` (stereo not drawn) [Example 126, 2-(tert-butoxy)-2-[8-fluoro-7-methoxy-2-methyl-4-(5-methyl-3,4-dihydro-2H-1-benzopyran-6-yl)-1-oxo-1,2-dihydroisoquinolin-3-yl]acetic acid]: the pIC50 was 6.44.

For `CC(=O)NCc1ccc2c(-c3ccc(C)c(C)c3)c(C(OC(C)(C)C)C(=O)O)n(C)c(=O)c2c1` (stereo not drawn) [Example 184, 2-(7-(acetamidomethyl)-4-(3,4-dimethylphenyl)-2-methyl-1-oxo-1,2-dihydroisoquinolin-3-yl)-2-(tert-butoxy)acetic acid], the pIC50 is 4.50. Same read-out and setting: for `Cn1cc(-c2c(C(OC(C)(C)C)C(=O)O)n(C)c(=O)c3ccccc23)cn1` (stereo not drawn) [Example 157, [(1,1-dimethylethyl)oxy][2-methyl-4-(1-methyl-1H-pyrazol-4-yl)-1-oxo-1,2-dihydro-3-isoquinolinyl]acetic acid] the value was 4.38. Same read-out and setting: under `CCOC(C(=O)O)c1c(-c2ccc(C)cc2C)c2ccccc2c(=O)n1C` (stereo not drawn) [Example 218, [4-(2,4-dimethylphenyl)-2-methyl-1-oxo-1,2-dihydro-3-isoquinolinyl](ethyloxy)acetic acid] stands 4.48; under `Cc1c(-c2c(C(OC(C)(C)C)C(=O)O)n(C)c(=O)c3cc(OCc4ccc(Cl)cc4)ccc23)ccc2c1CCCO2` (stereo not drawn) [Example 136, 2-(tert-butoxy)-2-{7-[(4-chlorophenyl)methoxy]-2-methyl-4-(5-methyl-3,4-dihydro-2H-1-benzopyran-6-yl)-1-oxo-1,2-dihydroisoquinolin-3-yl}acetic acid], 7.00; under `Cc1cccc(-c2ccc3c(-c4cc(F)c5c(c4C)CCCO5)c([C@H](OC(C)(C)C)C(=O)O)n(C)c(=O)c3c2)n1` (atropisomer, axis not shown; (M)) [Example 173, (2S)(M)-[(1,1-dimethylethyl)oxy][4-(8-fluoro-5-methyl-3,4-dihydro-2H-chromen-6-yl)-2-methyl-7-(6-methyl-2-pyridinyl)-1-oxo-1,2-dihydro-3-isoquinolinyl]ethanoic acid], 6.92.

On to `Cc1c(-c2c([C@H](OC(C)(C)C)C(=O)O)n(C)c(=O)c3cc(-c4cccn4C)ccc23)cc(F)c2c1CCCO2` (atropisomer, axis not shown; (M)) [Example 202, (S)(M)-[(1,1-dimethylethyl)oxy][4-(8-fluoro-5-methyl-3,4-dihydro-2H-chromen-6-yl)-2-methyl-7-(1-methyl-1H-pyrrol-2-yl)-1-oxo-1,2-dihydro-3-isoquinolinyl]ethanoic acid], for which the pIC50 was 7.70. Turning to `Cc1c(-c2c(C(OC(C)(C)C)C(=O)O)n(C)c(=O)c3cc(O)ccc23)ccc2c1CCCO2` (stereo not drawn) [Example 84, 2-(tert-butoxy)-2-[7-hydroxy-2-methyl-4-(5-methyl-3,4-dihydro-2H-1-benzopyran-6-yl)-1-oxo-1,2-dihydroisoquinolin-3-yl]acetic acid], the pIC50 is 4.59.

As for `Cc1ccc(-c2c(C(OC(C)(C)C)C(=O)O)n(C)c(=O)c3cc(CNS(C)(=O)=O)ccc23)cc1C` (stereo not drawn) [Example 187, 2-(tert-butoxy)-2-(4-(3,4-dimethylphenyl)-2-methyl-7-(methylsulfonamidomethyl)-1-oxo-1,2-dihydroisoquinolin-3-yl)acetic acid], the negative-log IC50 (pIC50) is 4.64. Same read-out and setting: for `Cc1c(-c2c(C(OC(C)(C)C)C(=O)O)n(C)c(=O)c3ccccc23)cc(F)c2c1CCCO2` (stereo not drawn) [Example 150, [(1,1-dimethylethyl)oxy][4-(8-fluoro-5-methyl-3,4-dihydro-2H-chromen-6-yl)-2-methyl-1-oxo-1,2-dihydro-3-isoquinolinyl]acetic acid] the value was 6.80. For the compound `COc1ccc(-c2c(C(OC(C)(C)C)C(=O)O)n(C)c(=O)c3ccccc23)cc1C` (stereo not drawn) [Example 54, 2-(tert-butoxy)-2-[4-(4-methoxy-3-methylphenyl)-2-methyl-1-oxo-1,2-dihydroisoquinolin-3-yl]acetic acid], the pIC50 was 4.91.

Turning to `Cn1c(C(OC(C)(C)C)C(=O)O)c(-c2ccc(C(F)(F)F)cc2)c2ccccc2c1=O` (stereo not drawn) [Example 17, 2-(tert-butoxy)-2-{2-methyl-1-oxo-4-[4-(trifluoromethyl)phenyl]-1,2-dihydroisoquinolin-3-yl}acetic acid], the pIC50 is 4.73. On the same count and under the same terms, for `Cc1ccc(-c2c(C(CC(C)C)C(=O)O)n(C)c(=O)c3ccccc23)c(C)c1` (stereo not drawn) [Example 217, 2-[4-(2,4-dimethylphenyl)-2-methyl-1-oxo-1,2-dihydro-3-isoquinolinyl]-4-methylpentanoic acid] the value was 4.88; for `COc1cc2c(=O)n(C)c(C(OC(C)(C)C)C(=O)O)c(-c3ccc4c(c3C)CCCO4)c2cc1Cl` (stereo not drawn) [Example 130, 2-(tert-butoxy)-2-[6-chloro-7-methoxy-2-methyl-4-(5-methyl-3,4-dihydro-2H-1-benzopyran-6-yl)-1-oxo-1,2-dihydroisoquinolin-3-yl]acetic acid], 5.43. The same measure, in the same setting: for `Cc1ccc(-c2c(C(OC(C)(C)C)C(=O)O)n(C)c(=O)c3cc(-c4cn(CCO)nn4)ccc23)c(C)c1` (stereo not drawn) [Example 219, [(1,1-dimethylethyl)oxy]{4-(2,4-dimethylphenyl)-7-[1-(2-hydroxyethyl)-1H-1,2,3-triazol-4-yl]-2-methyl-1-oxo-1,2-dihydro-3-isoquinolinyl}acetic acid] the value was 4.95; for `Cc1c(-c2c(C(OC(C)(C)C)C(=O)O)n(C)c(=O)c3cc(OCc4ccc(F)cn4)ccc23)ccc2c1CCCO2` (stereo not drawn) [Example 100, 2-(tert-butoxy)-2-{7-[(5-fluoropyridin-2-yl)methoxy]-2-methyl-4-(5-methyl-3,4-dihydro-2H-1-benzopyran-6-yl)-1-oxo-1,2-dihydroisoquinolin-3-yl}acetic acid], 6.57; for `Cc1c(-c2c([C@H](OC(C)(C)C)C(=O)O)n(C)c(=O)c3cc(OCc4cccs4)ccc23)cc(F)c2c1CCCO2` [Example 109, (2S)-2-(tert-butoxy)-2-[4-(8-fluoro-5-methyl-3,4-dihydro-2H-1-benzopyran-6-yl)-2-methyl-1-oxo-7-(thiophen-2-ylmethoxy)-1,2-dihydroisoquinolin-3-yl]acetic acid], 7.70.

With `Cc1c(-c2c(C(OC(C)(C)C)C(=O)O)n(C)c(=O)c3cc(OCc4ccc(F)c(F)c4)ccc23)ccc2c1CCCO2` (stereo not drawn) [Example 138, 2-(tert-butoxy)-2-{7-[(3,4-difluorophenyl)methoxy]-2-methyl-4-(5-methyl-3,4-dihydro-2H-1-benzopyran-6-yl)-1-oxo-1,2-dihydroisoquinolin-3-yl}acetic acid], the pIC50 is 7.15. Same read-out and setting: under `Cc1c(-c2c([C@H](OC(C)(C)C)C(=O)O)n(C)c(=O)c3cc(F)ccc23)cc(F)c2c1CCCO2` [Example 139, (2S)-2-(tert-butoxy)-2-[7-fluoro-4-(8-fluoro-5-methyl-3,4-dihydro-2H-1-benzopyran-6-yl)-2-methyl-1-oxo-1,2-dihydroisoquinolin-3-yl]acetic acid] stands 7.52. Still for that read-out and setting: under `Cc1c(-c2c(C(OC(C)(C)C)C(=O)O)n(C)c(=O)c3cc(OCc4ccc(F)cc4)ccc23)ccc2c1CCCO2` (stereo not drawn) [Example 93, 2-(tert-butoxy)-2-{7-[(4-fluorophenyl)methoxy]-2-methyl-4-(5-methyl-3,4-dihydro-2H-1-benzopyran-6-yl)-1-oxo-1,2-dihydroisoquinolin-3-yl}acetic acid] stands 7.10; under `Cc1c(-c2c(C(OC(C)(C)C)C(=O)O)n(C)c(=O)c3cc(OCc4ccccn4)ccc23)ccc2c1CCCO2` (stereo not drawn) [Example 129, 2-(tert-butoxy)-2-[2-methyl-4-(5-methyl-3,4-dihydro-2H-1-benzopyran-6-yl)-1-oxo-7-(pyridin-2-ylmethoxy)-1,2-dihydroisoquinolin-3-yl]acetic acid], 6.70. For the compound `COc1ccc(-c2c(C(OC(C)(C)C)C(=O)O)n(C)c(=O)c3ccccc23)c(C)c1` (stereo not drawn) [Example 31, 2-(tert-butoxy)-2-[4-(4-methoxy-2-methylphenyl)-2-methyl-1-oxo-1,2-dihydroisoquinolin-3-yl]acetic acid], the pIC50 is 5.76. `COc1ccc2c(-c3cc(F)c4c(c3C)CCCO4)c([C@H](OC(C)(C)C)C(=O)O)n(C)c(=O)c2c1` [Example 106, (2S)-2-(tert-butoxy)-2-[4-(8-fluoro-5-methyl-3,4-dihydro-2H-1-benzopyran-6-yl)-7-methoxy-2-methyl-1-oxo-1,2-dihydroisoquinolin-3-yl]acetic acid]: the negative logarithm of the IC50 (pIC50) was 7.40. Consider `Cc1c(-c2c([C@H](OC(C)(C)C)C(=O)O)n(C)c(=O)c3ccccc23)ccc2c1CCCO2` [Example 140, (2S)-2-(tert-butoxy)-2-[2-methyl-4-(5-methyl-3,4-dihydro-2H-1-benzopyran-6-yl)-1-oxo-1,2-dihydroisoquinolin-3-yl]acetic acid], for which the pIC50 is 6.96.

Consider `CC(=O)N1CCc2ccc(-c3c(C(OC(C)(C)C)C(=O)O)n(C)c(=O)c4ccccc34)cc2C1` (stereo not drawn) [Example 80, 2-[4-(2-acetyl-1,2,3,4-tetrahydroisoquinolin-7-yl)-2-methyl-1-oxo-1,2-dihydroisoquinolin-3-yl]-2-(tert-butoxy)acetic acid], for which the pIC50 was 4.30.

Consider `Cc1c(-c2c(C(OC(C)(C)C)C(=O)O)n(C)c(=O)c3cc(OCc4ccc(F)cn4)ccc23)cc(F)c2c1CCCO2` (stereo not drawn) [Example 101, 2-(tert-butoxy)-2-[4-(8-fluoro-5-methyl-3,4-dihydro-2H-1-benzopyran-6-yl)-7-[(5-fluoropyridin-2-yl)methoxy]-2-methyl-1-oxo-1,2-dihydroisoquinolin-3-yl]acetic acid], for which the pIC50 was 6.54.

Staying with this assay, now noted: read-out: HIV MT4 Assay IC50; HTLV-1 transformed cell line MT-4; 96 hours; cell titer glo; 10 point dose response curve.
`Cc1c(-c2c([C@H](OC(C)(C)C)C(=O)O)n(C)c(=O)c3ccccc23)cc(F)c2c1CCCO2` [Example 162, (2S)-2-(tert-butoxy)-2-[4-(8-fluoro-5-methyl-3,4-dihydro-2H-1-benzopyran-6-yl)-2-methyl-1-oxo-1,2-dihydroisoquinolin-3-yl]acetic acid]: the pIC50 is 5.38.

Broadly, the pIC50 is the negative decadic logarithm of the IC50, by convention in mol/L.

The record behind these values is US9029391B2 (priority 2011, dated 2015).
